{"source": "patent US20250312462A1", "about": "“PAK1 DEGRADERS AND METHODS OF USE THEREOF” (INSTITUTE FOR CANCER RESEARCH D/B/A THE RESEARCH INSTITUTE …, priority 2022, published 2025)", "key": {"Nluc-PAK1": {"target": "T1, Nluc-PAK1 (Homo sapiens, UniProt Q13153+Q96SW2)", "T1 construct": "[…]; expressed in transfected cells", "assay": "Nluc-PAK1 luciferase assay in HEK293 cells", "assay_type": "cell-based", "description": "MCF7 ([…], CVCL_0031) were cultured in high-glucose DMEM medium (Gibco) supplemented with 10% fetal bovine serum (HyClone), 2 mM L-glutamine and 100 U/ml penicillin/streptomycin (Gibco). MOLT4 ([…], CVCL_0013) were cultured in RPMI 1640 medium (Gibco) supplemented with 10% fetal bovine serum and 2 mM L-glutamine. OVCAR3 ([…], CVCL_0465), Hey A8 ([…], CVCL_8878) and OMM1 ([…], CVCL_6939) were cultured in RPMI 1640 medium (Gibco) supplemented with 10% fetal bovine serum, 2 mM L-glutamine and 100 U/ml penicillin/streptomycin (Gibco). All cell lines were cultured at 37° C. in a humidified 5% CO2 incubator. HEK293 cells stably expressing Nluc-PAK1 were constructed by transfecting with the pFN31K Nluc-PAK1 expression vector (0.5 μg DNA per well) in 12-well plates using Lipofectamine™ 3000 (Invitrogen) according to the manufacturer's protocol. Transfected Nluc-PAK1 cells were cultured for 1 week in DMEM medium containing G418 (2 mg mL^−1) to select stable clones.\nHEK293 cells stably expressing pFN31K-Nluc-PAK1 were assayed for luciferase activity according to the manufacturer's Nano-Glo® Live Cell Assay System protocol (Promega). In brief, 25 μl of Nano-Glo® Live Cell Reagent was added per well and the plate was gently mixed by hand, then placed in a 37° C. luminometer for 10 minutes.\nTo better quantify the effect of degrader treatment, HEK293 cells were transfected with an expression vector encoding nano-luciferase (Nluc)-tagged PAK1. The Nluc tag allows for luciferase-based quantitation of protein expression (England, et al. (2016) Bioconjug. Chem., 27:1175-1187). Nluc-PAK1 cells were treated with BJG-05-039 or its N-methylated analog, BJG-05-098, and PAK1 expression was assessed (FIG. 2D)."}, "[1]": {"target": "RPS6KA5(Kin.Dom.2-C-terminal) (Homo sapiens, UniProt O75582)", "sequence (O75582 426-687 limits assumed)": "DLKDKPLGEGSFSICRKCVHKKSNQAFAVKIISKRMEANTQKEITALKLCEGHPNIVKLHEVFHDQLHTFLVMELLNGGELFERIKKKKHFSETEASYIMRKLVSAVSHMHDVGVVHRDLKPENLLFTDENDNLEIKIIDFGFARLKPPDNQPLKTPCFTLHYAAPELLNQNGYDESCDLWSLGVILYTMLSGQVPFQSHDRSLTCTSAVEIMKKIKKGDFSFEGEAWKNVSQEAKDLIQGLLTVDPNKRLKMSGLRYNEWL", "assay": "KINOMEscan", "conditions": "read-out: Percent Control", "experimental": "(§1) The kinase engagement assay (KINOMEscan®) was performed by DiscoverX assessing binding abilities toward a set of kinases."}, "p38-alpha": {"target": "p38-alpha (Homo sapiens, UniProt Q16539)", "assay": "KINOMEscan", "conditions": "read-out: Percent Control", "experimental": "as §1"}, "MYO3A": {"target": "MYO3A (Homo sapiens, UniProt Q8NEV4)", "assay": "KINOMEscan", "conditions": "read-out: Percent Control", "experimental": "as §1"}, "MAST1": {"target": "MAST1 (Homo sapiens, UniProt Q9Y2H9)", "assay": "KINOMEscan", "conditions": "read-out: Percent Control", "experimental": "as §1"}, "TRKA": {"target": "TRKA (Homo sapiens, UniProt P04629)", "assay": "KINOMEscan", "conditions": "read-out: Percent Control", "experimental": "as §1"}, "TSSK1B": {"target": "TSSK1B (Homo sapiens, UniProt Q9BXA7)", "assay": "KINOMEscan", "conditions": "read-out: Percent Control", "experimental": "as §1"}, "PIK3CG": {"target": "PIK3CG (Homo sapiens, UniProt P48736)", "sequence (P48736 whole entry)": "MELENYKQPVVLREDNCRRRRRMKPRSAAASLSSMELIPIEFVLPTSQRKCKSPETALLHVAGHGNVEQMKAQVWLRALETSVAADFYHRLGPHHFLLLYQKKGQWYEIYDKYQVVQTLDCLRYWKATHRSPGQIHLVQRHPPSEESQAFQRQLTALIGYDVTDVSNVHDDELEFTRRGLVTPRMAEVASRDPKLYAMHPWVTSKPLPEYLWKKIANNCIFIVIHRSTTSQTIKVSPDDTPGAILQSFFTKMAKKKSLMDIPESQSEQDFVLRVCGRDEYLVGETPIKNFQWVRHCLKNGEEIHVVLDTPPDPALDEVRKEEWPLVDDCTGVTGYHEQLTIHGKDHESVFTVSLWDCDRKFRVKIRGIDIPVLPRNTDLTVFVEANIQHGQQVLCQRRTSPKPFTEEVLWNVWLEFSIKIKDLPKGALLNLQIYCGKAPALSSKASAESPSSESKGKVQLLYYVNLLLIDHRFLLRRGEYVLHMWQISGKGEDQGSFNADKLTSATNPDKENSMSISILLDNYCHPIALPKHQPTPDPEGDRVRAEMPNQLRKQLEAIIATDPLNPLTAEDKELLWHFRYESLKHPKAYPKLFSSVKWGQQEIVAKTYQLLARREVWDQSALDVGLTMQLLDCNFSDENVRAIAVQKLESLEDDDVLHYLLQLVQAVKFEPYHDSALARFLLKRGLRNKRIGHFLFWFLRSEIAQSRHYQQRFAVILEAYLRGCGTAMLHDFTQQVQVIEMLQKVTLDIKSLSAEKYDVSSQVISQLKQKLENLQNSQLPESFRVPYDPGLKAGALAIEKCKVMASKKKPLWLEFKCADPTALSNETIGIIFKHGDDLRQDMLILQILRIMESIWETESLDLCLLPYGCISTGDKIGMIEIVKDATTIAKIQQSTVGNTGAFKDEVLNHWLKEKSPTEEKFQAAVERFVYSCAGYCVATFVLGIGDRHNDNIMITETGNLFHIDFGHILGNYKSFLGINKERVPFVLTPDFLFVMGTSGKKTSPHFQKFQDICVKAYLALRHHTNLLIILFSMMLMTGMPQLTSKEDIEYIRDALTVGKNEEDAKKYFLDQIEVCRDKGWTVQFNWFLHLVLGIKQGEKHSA", "assay": "KINOMEscan", "conditions": "read-out: Percent Control", "experimental": "as §1"}, "PFTAIRE2": {"target": "PFTAIRE2 (Homo sapiens, UniProt Q96Q40)", "assay": "KINOMEscan", "conditions": "read-out: Percent Control", "experimental": "as §1"}, "DCAMKL3": {"target": "DCAMKL3 (Homo sapiens, UniProt Q9C098)", "sequence (Q9C098 whole entry)": "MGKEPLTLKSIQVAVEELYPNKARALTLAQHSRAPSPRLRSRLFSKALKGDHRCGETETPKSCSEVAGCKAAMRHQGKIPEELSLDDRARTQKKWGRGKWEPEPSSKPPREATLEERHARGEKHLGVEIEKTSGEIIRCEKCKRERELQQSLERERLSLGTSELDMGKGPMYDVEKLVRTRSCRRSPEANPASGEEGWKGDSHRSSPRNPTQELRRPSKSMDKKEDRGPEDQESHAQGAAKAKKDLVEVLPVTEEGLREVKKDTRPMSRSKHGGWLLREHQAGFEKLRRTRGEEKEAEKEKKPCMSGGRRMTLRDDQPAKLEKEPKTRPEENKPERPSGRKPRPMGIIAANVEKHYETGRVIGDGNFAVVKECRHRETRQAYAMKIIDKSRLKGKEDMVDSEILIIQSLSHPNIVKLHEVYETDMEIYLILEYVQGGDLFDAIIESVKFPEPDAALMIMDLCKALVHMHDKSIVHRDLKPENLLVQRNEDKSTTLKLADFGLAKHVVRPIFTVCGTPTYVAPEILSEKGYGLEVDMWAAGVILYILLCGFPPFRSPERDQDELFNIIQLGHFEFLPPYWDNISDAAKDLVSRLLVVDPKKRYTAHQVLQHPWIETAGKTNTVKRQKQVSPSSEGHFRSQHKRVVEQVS", "assay": "KINOMEscan", "conditions": "read-out: Percent Control", "experimental": "as §1"}, "LRRK2": {"target": "LRRK2 (Homo sapiens, UniProt Q5S007)", "assay": "KINOMEscan", "conditions": "read-out: Percent Control", "experimental": "as §1"}, "[2]": {"target": "RSK2(Kin.Dom.1-N-terminal) (Homo sapiens, UniProt P51812)", "assay": "KINOMEscan", "conditions": "read-out: Percent Control", "experimental": "as §1"}, "AMPK-alpha1": {"target": "AMPK-alpha1 (Homo sapiens, UniProt Q13131)", "assay": "KINOMEscan", "conditions": "read-out: Percent Control", "experimental": "as §1"}, "BMX": {"target": "BMX (Homo sapiens, UniProt P51813)", "sequence (P51813 whole entry)": "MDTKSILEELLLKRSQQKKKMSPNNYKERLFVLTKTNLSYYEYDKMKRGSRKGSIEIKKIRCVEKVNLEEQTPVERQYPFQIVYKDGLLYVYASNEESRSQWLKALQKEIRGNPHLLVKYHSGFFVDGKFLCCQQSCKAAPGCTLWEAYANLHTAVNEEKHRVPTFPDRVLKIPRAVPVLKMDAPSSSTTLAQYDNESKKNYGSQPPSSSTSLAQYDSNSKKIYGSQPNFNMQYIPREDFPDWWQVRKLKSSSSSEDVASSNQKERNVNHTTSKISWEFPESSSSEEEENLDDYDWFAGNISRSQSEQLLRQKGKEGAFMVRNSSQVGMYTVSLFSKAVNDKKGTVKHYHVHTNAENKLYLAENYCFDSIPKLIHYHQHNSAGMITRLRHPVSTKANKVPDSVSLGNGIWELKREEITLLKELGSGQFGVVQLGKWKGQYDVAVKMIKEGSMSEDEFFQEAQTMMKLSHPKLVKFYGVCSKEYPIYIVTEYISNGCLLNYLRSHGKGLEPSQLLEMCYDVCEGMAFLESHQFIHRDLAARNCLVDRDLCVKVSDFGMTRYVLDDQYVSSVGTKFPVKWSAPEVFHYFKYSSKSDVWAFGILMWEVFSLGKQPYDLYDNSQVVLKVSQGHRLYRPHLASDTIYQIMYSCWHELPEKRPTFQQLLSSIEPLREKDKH", "assay": "KINOMEscan", "conditions": "read-out: Percent Control", "experimental": "as §1"}, "EPHA7": {"target": "EPHA7 (Homo sapiens, UniProt Q15375)", "sequence (Q15375 28-998)": "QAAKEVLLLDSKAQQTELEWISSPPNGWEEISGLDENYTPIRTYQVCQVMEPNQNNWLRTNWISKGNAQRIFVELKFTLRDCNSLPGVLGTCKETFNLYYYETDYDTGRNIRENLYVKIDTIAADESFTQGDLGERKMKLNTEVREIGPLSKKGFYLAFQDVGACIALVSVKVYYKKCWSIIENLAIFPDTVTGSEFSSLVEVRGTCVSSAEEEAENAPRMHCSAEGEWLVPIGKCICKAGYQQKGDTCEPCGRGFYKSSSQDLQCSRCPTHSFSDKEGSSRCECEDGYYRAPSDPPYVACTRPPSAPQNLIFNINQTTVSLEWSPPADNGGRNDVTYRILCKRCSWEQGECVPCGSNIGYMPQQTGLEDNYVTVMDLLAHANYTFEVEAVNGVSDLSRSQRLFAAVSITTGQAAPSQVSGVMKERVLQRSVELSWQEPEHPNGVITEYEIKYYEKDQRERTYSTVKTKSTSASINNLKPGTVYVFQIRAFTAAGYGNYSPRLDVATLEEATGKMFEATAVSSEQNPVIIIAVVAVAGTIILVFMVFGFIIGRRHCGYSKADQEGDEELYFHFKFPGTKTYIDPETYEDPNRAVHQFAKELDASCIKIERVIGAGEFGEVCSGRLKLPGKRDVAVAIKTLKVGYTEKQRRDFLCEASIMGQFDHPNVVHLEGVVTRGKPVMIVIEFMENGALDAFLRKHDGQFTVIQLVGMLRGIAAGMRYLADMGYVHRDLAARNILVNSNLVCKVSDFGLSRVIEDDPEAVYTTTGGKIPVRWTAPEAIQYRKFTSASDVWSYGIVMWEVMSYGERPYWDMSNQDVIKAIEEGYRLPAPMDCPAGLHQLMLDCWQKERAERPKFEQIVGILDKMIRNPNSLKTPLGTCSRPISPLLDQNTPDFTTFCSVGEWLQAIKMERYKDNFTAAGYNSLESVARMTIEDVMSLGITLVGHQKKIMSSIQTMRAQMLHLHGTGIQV", "assay": "KINOMEscan", "conditions": "read-out: Percent Control", "experimental": "as §1"}, "LCK": {"target": "LCK (Homo sapiens, UniProt P06239)", "assay": "KINOMEscan", "conditions": "read-out: Percent Control", "experimental": "as §1"}, "PIK3CA(E542K)": {"target": "PIK3CA(E542K) (Homo sapiens, UniProt P42336, E542K)", "assay": "KINOMEscan", "conditions": "read-out: Percent Control", "experimental": "as §1"}, "SNARK": {"target": "SNARK (Homo sapiens, UniProt Q9H093)", "assay": "KINOMEscan", "conditions": "read-out: Percent Control", "experimental": "as §1"}, "HIPK1": {"target": "HIPK1 (Homo sapiens, UniProt Q86Z02)", "assay": "KINOMEscan", "conditions": "read-out: Percent Control", "experimental": "as §1"}, "KIT(D816H)": {"target": "KIT(D816H) (Homo sapiens, UniProt P10721, D816H)", "assay": "KINOMEscan", "conditions": "read-out: Percent Control", "experimental": "as §1"}, "PRKCE": {"target": "PRKCE (Homo sapiens, UniProt Q02156)", "sequence (Q02156 whole entry)": "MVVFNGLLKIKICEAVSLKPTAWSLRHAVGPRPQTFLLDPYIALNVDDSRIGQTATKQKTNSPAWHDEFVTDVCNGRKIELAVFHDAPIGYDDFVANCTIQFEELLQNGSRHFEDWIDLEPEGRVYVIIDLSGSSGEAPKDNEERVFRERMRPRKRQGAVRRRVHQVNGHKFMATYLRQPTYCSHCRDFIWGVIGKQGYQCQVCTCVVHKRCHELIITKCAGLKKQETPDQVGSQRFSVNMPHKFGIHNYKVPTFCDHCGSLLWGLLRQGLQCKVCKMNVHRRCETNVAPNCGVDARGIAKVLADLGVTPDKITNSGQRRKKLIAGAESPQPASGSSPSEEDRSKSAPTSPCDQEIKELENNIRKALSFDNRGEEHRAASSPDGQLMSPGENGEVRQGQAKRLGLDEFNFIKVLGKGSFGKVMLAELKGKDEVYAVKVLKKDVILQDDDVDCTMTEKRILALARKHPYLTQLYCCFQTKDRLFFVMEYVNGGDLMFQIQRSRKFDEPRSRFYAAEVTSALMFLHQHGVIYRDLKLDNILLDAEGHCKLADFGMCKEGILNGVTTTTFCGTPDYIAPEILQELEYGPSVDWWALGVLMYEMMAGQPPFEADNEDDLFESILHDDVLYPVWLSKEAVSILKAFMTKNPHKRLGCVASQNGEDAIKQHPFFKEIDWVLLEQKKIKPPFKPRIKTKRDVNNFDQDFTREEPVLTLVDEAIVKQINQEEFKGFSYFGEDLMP", "assay": "KINOMEscan", "conditions": "read-out: Percent Control", "experimental": "as §1"}, "PAK1": {"target": "PAK1 (Homo sapiens, UniProt Q13153)", "sequence (Q13153 whole entry)": "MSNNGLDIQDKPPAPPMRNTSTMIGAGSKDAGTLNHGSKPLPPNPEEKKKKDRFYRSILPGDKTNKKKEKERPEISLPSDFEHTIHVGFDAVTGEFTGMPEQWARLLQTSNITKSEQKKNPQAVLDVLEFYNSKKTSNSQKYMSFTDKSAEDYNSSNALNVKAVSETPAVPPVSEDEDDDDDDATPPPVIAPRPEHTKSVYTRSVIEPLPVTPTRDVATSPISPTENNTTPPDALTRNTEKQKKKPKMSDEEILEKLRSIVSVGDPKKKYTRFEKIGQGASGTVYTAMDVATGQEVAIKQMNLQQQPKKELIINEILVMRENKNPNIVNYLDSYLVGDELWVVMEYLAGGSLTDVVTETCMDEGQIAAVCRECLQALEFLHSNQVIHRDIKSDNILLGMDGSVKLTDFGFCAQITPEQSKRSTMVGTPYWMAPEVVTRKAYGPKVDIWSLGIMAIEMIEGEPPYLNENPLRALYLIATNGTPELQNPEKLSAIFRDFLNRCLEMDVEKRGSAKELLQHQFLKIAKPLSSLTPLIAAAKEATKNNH", "assay": "PAK1 degradation in MCF7 and OVCAR3 cells, immunoblot", "assay_type": "cell-based", "parameters": "endogenous in cells; host or cells: MCF7, OVCAR3", "description": "Protein lysates were harvested at the times specified.\nCell lysates were obtained by centrifugation at 13,500 rpm for 15 minutes at 4° C. BCA protein assay (Thermo Scientific) was used to determine protein concentration then equal amounts of total proteins were separated by SDS-PAGE (Bio-Rad) and transferred to PVDF membrane (Thermo Scientific) at 100V for 2 hours. Membranes were blocked in 5% (w/v) non-fat dry milk in tris-buffered saline with 0.1% Tween-20 (TBS-T) for 1 hour and incubated with primary antibody at 4° C. for overnight. Membranes were washed with TBS-T on the next day and incubated with HRP-conjugated secondary antibodies (Millipore) at room temperature for 1 hour and exposed to films after washing."}}, "data": [{"smiles": "O=C1CCC(N2C(=O)c3cccc(NCCCCCCCCNC(=O)N4CC[C@H](NC5=Nc6cc(F)ccc6N(CC(F)F)c6ccc(Cl)cc65)C4)c3C2=O)C(=O)N1", "note": "(stereo partly drawn) [BJG-05-039, (3S)-3-((2-Chloro-5-(2,2-difluoroethyl)-8-fluoro-5H-dibenzo[b,e][1,4]diazepin-11-yl)amino)-N-(8-((2-(2,6-dioxopiperidin-3-yl)-1,3-dioxoisoindolin-4-yl)amino)octyl)pyrrolidine-1-carboxamide]", "values": [{"measurement": "Reduction in PAK1 expression", "setting": "Nluc-PAK1; 10 nM, HEK293 Nluc-PAK1 cells, 24 hours", "result": "approximately 70%"}, {"measurement": "Concentration of half-maximal degradation of PAK1", "setting": "Nluc-PAK1; HEK293 Nluc-PAK1 cells", "result": "low nM concentrations"}, {"measurement": "Loss of the PAK1 protein", "setting": "Nluc-PAK1; in the absence of drug efflux inhibitors", "result": 70, "unit": "%"}, {"measurement": "remaining binding at 10 µM", "setting": "[1]", "result": 42, "unit": "%"}, {"measurement": "remaining binding at 10 µM", "setting": "p38-alpha", "result": 60, "unit": "%"}, {"measurement": "remaining binding at 10 µM", "setting": "MYO3A", "result": 67, "unit": "%"}, {"measurement": "remaining binding at 10 µM", "setting": "MAST1", "result": 71, "unit": "%"}, {"measurement": "remaining binding at 10 µM", "setting": "TRKA", "result": 72, "unit": "%"}, {"measurement": "remaining binding at 10 µM", "setting": "TSSK1B", "result": 73, "unit": "%"}, {"measurement": "remaining binding at 10 µM", "setting": "PIK3CG", "result": 77, "unit": "%"}, {"measurement": "remaining binding at 10 µM", "setting": "PFTAIRE2", "result": 78, "unit": "%"}, {"measurement": "remaining binding at 10 µM", "setting": "DCAMKL3", "result": 79, "unit": "%"}, {"measurement": "remaining binding at 10 µM", "setting": "LRRK2", "result": 80, "unit": "%"}, {"measurement": "remaining binding at 10 µM", "setting": "[2]", "result": 82, "unit": "%"}, {"measurement": "remaining binding at 10 µM", "setting": "AMPK-alpha1", "result": 86, "unit": "%"}, {"measurement": "remaining binding at 10 µM", "setting": "BMX", "result": 90, "unit": "%"}, {"measurement": "remaining binding at 10 µM", "setting": "EPHA7", "result": 90, "unit": "%"}, {"measurement": "remaining binding at 10 µM", "setting": "LCK", "result": 91, "unit": "%"}, {"measurement": "remaining binding at 10 µM", "setting": "PIK3CA(E542K)", "result": 91, "unit": "%"}, {"measurement": "remaining binding at 10 µM", "setting": "SNARK", "result": 96, "unit": "%"}, {"measurement": "remaining binding at 10 µM", "setting": "HIPK1", "result": 100, "unit": "%"}, {"measurement": "remaining binding at 10 µM", "setting": "KIT(D816H)", "result": 100, "unit": "%"}, {"measurement": "remaining binding at 10 µM", "setting": "PRKCE", "result": 100, "unit": "%"}, {"measurement": "Reduction in PAK1 levels by immunoblot", "setting": "PAK1; FIG. 2A", "result": "~50", "unit": "%"}, {"measurement": "PAK1 degradation", "setting": "PAK1; MCF7 and OVCAR3 cells", "result": "induced degradation of PAK1"}, {"measurement": "Concentration of maximal PAK1 degradation", "setting": "PAK1; MCF7 and OVCAR3 cells, 12 hour treatment", "result": 10, "unit": "nM"}, {"measurement": "Time to partial degradation of PAK1", "setting": "PAK1; MCF7 cells, 250 nM, progressive loss out to 24 hours", "result": "≤ 4", "unit": "h"}, {"measurement": "PAK1 degradation on co-treatment", "setting": "PAK1; co-treatment with bortezomib or MLN4924", "result": "prevented PAK1 destabilization"}, {"measurement": "PAK1 degradation at high concentration (hook effect)", "setting": "PAK1; concentrations of 1 μM and greater", "result": "diminished PAK1 degradation was observed"}]}]}
